Measurements reported in publication PMC4474691, “Leukemia-Associated Mutations in Nucleophosmin Alter Recognition by CRM1: Molecular Basis of Aberrant Transport” (PLoS ONE, 2015).
Values belong to the substance of their own block, whether it stands above or below them.

Assays:
CRM1^HA [1] = biological target: T1, CRM1^HA (Mus musculus, UniProt Q6P5F9, L431A/V430A/V432A); assay: Fluorescence anisotropy binding assay, CRM1^HA; details: 0–60 μM CRM1^HA, 25°C
T1 construct: His-ZZ (cleaved yes); made in house; host or cells: Escherichia coli BL21-CodonPlus (DE3)
T1 sequence (Q6P5F9 1-1062 V430A/L431A/V432A limits assumed): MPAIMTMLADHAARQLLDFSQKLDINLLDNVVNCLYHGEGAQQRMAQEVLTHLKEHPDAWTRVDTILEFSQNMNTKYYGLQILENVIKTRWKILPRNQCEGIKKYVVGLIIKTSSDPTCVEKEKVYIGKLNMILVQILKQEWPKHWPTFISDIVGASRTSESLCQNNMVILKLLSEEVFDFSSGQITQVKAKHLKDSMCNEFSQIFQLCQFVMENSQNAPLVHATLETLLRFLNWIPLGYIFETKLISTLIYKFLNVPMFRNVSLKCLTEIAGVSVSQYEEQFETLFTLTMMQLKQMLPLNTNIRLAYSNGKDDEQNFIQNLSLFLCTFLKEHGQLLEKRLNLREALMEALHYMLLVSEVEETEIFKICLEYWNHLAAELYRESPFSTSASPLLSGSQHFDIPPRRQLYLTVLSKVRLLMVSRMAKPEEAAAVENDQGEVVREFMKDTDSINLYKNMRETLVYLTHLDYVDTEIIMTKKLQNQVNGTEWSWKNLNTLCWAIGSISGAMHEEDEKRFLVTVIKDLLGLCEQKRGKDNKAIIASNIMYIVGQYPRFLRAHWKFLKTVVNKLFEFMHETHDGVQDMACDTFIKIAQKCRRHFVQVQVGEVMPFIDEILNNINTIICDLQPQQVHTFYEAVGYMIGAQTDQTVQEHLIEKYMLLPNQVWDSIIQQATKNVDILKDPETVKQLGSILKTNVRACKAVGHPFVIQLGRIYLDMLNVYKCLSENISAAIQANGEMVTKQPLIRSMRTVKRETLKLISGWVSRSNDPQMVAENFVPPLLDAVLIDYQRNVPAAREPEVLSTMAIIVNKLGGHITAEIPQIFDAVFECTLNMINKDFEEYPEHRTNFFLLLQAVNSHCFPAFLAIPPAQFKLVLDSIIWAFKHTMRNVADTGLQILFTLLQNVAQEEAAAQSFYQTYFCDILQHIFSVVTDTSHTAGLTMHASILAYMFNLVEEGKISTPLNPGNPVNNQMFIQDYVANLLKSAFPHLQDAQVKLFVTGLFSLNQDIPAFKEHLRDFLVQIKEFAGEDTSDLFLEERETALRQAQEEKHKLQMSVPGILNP
Experimental: Fluorescence anisotropy binding assays
To estimate CRM1 binding affinities for NES motifs we monitored binding with a fluorescence-polarization assay based on previously described approaches. The increase in fluorescence anisotropy of TFP/YFP when the TFP/YFP-NES construct (50 nM) binds to 0–60 μM CRM1 (either CRM^HA or wild type) was recorded at 25°C with a 8100 SLM-Aminco spectrofluorometer in buffer 20 mM Tris/HCl, pH 7.4, 50 mM NaCl, 5 mM DTT, 2 mM MgCl2. Excitation and emission wavelengths were 463, 500 nm for TFP and 463, 533 nm for YFP, and slits width 4 and 8 nm, respectively.
Fig 4 Binding of CRM1 to TFP-NES constructs. (A) Scheme of the engineered TFP constructs, showing the sequence of the NES motifs. Φ residues are highlighted in red. (B) Titration of CRM1 onto the different TFP constructs (50 nM), at 25°C, in buffer 20 mM Tris/HCl, pH 7.4, 50 mM NaCl, 5 mM DTT, 2 mM MgCl2: Left panel: Binding of CRM1^HA (solid symbols) or wild type CRM1 (empty symbols) to TFP-PKI(NES). Right panel: Binding of CRM1^HA to TFP-mutE(NES) (triangles) and TFP-mutA(NES) (squares). Fraction bound was calculated from the relative increase in fluorescence anisotropy of TFP (λexc 463 nm, λem 500 nm). Error bars correspond to at least three measurements per CRM1 concentration.
We next used the TFP-(NES) constructs to monitor CRM1^HA binding to each motif, using the change in fluorescence anisotropy upon complex formation as a readout (Fig 4B), as previously described. […] The different nature of the fluorescent tag, and/or the linker between the fluorescent protein and the NES (2 residues longer in the YFP-PKI construct) could explain the discrepancy. […] To isolate the CRM1 / NES interaction under study from the influence of the tag protein, we have also conducted binding assays with peptides corresponding to the NES motifs (see below).

CRM1^HA [2] = biological target: T1, CRM1^HA; assay: Ni-NTA chromatography of TFP-NES / CRM1^HA complex formation; type: binding; details: 2.5 mg His-tagged TFP construct on 1 mL Histrap FF, 1 mL CRM1^HA 18 μM; 50 mM Tris/HCl pH 8.0, 500 mM NaCl; SDS-PAGE
Text: Although the relative potency of the NESs acquired by the different NPM mutants has been compared using an in vivo export assay, their CRM1-binding affinities have not yet been determined. We cloned the NESs of mutant A and E as C-terminal fusions to a teal fluorescent protein (TFP) (Fig 4A). As a reference, we generated an equivalent construct with the well-characterized NES of protein kinase inhibitor (PKI). We first tested the binding of CRM1^HA to the TFP-NES constructs using Ni-NTA chromatography. His-tagged TFP constructs were bound to the Ni-NTA column, and an excess of untagged CRM1^HA was then injected (S4 Fig).
Supplementary file pone.0130610.s004.tif: S4 Fig TFP-NES / CRM1^HA complex formation shown by Ni-NTA chromatography. 2.5 mg of the His-tagged TFP construct were loaded on a 1 mL Histrap FF (GE Healthcare) in buffer 50 mM Tris/HCl, pH 8.0, 500 mM NaCl, 1 mM TCEP, 2 mM MgCl2, 5% glycerol, containing 15 mM imidazole. After washing with the same buffer, 1 mL of CRM1^HA at 18 μM was injected at 0.1 mL/min flow rate. Unbound CRM1^HA was collected, and then bound proteins were eluted with 2 M imidazole. SDS-PAGE of elution fractions: Unbound (free) CRM1^HA and the fraction eluted with imidazole, containing both the His-tagged TFP construct along with bound CRM1^HA. (TIF) Click here for additional data file.

CRM1^HA [3] = biological target: T1, CRM1^HA; assay: Isothermal titration calorimetry, CRM1^HA / NES; type: binding; details: ITC, 20°C; for Kd: read-out: KD
Experimental: Isothermal titration calorimetry (ITC)
ITC measurements were carried out using a VIP-ITC MicroCalorimeter (MicroCal, Inc., Northampton, MA). TFP and YFP constructs, as well as CRM1^HA, were dialyzed in a buffer containing 20 mM HEPES, pH 7.4, 50 mM NaCl, 1 mM TCEP, 1 mM MgCl2, and degassed prior to the experiment. Untagged peptides (AS: QDLCLAVEEVSLRK, AL: EAIQDLCLAVEEVSLRK, ES: QDLWQSLAQVSLRK and EL: EAIQDLWQSLAQVSLRK), N-acetylated and 95% pure, were purchased from Proteogenix (Schiltigheim, France) and resuspended in the ITC buffer. Measurements were performed at 20°C. TFP-NES, YFP-NES or NES peptides at 35–180 μM were titrated onto CRM1^HA at 2–14 μM. Injections of 6 μL were performed at 320 seconds interval (the first injection always was of 1 μL and is not considered in data analysis). To determine the thermodynamic parameters of NPM / importin interaction, importin α, importin Δα or importin α/β at 45–60 μM were titrated onto NPM (1–1.2 μM pentamer) in 50 mM Tris/HCl, pH 7.5, 100 mM NaCl, 2 mM TCEP, and 10% glycerol. […] “Reverse” titrations, where 20–30 μM NPM was titrated onto 7–10 μM of the different importins were also performed and yielded similar results.
The reaction heat of each injection is related to the calorimetric enthalpy of binding, ΔH^0. The binding isotherms, ΔH^0 vs. molar ratio, were analyzed with an independent binding sites model using MicroCal Origin software. The fit of the binding curve yields the binding constant KA (KD = 1/KA) and the enthalpy ΔH^0 of the binding reaction. The Gibbs free energy of binding ΔG^0 and the entropy ΔS^0 are determined from the basic thermodynamic expressions: ΔG^0 = -RTlnKA = ΔH^0−TΔS^0, where R and T are the gas constant and the absolute temperature, respectively.
Fig 5 Analysis of CRM1^HA/TFP-NES interaction by ITC. Isothermal titration of CRM1^HA with TFP-mutE(NES). […] The titration of negative control TFP-Cter (180 μM) onto CRM1^HA (14 μM) (circles) is also shown for comparison.

HeLa cells = assay: In vivo nuclear export assay, Rev(1.4)-GFP; type: cell-based; details: Rev(1.4)-NPMcNES-GFP in HeLa cells, actinomycin D, >200 cells per sample
Text: The clone of Myc3 tagged human NPM in pCDNA3.1 for eukaryotic expression was kindly provided by Dr. Yanping Zhang (University of Texas). From this clone, we used PCR to generate the AML-associated mutants A and E [27], by incorporating the mutations in the 3´oligonucleotide. The three NPM variants (wild type, A and E) were subcloned as YFP-NPM fusions into pEYFP-C1. The plasmid encoding YFP-CRM1 has been previously described, and pEYFP-C1 was used as its corresponding negative control. As a positive control in cell localization assays, a previously described plasmid encoding Flag-tagged Survivin fused to a heterologous NLS (“SurvNLS”) was used. To test the export activity of a novel putative NES in the C-terminal domain of wild type NPM, a DNA fragment encoding residues 264–282 was cloned into the plasmid Rev (1.4)-GFP (a gift of Dr. Beric Henderson, University of Sydney), as previously described.
The export activity of a novel putative NES in the C-terminal domain of NPM was tested using an established in vivo nuclear export assay in HeLa cells (see Supporting Information for further experimental details).
Supplementary file pone.0130610.s001.tif: S1 Fig A novel candidate NES (cNES) in NPM is not active in a nuclear export assay. […] Fluorescence microscopy images in panel B show the localization of the different proteins. […] More than 200 cells were counted per sample. […]

CRM1^HA [4] = biological target: T1, CRM1^HA; assay: Size exclusion chromatography of NPM / CRM1^HA complex formation; type: binding
Experimental: Chromatography-based binding experiments
[…] Then 100 μL were loaded onto a Superdex 200 10/30 column (GE Healthcare), equilibrated in buffer 20 mM Tris/HCl, pH 7.4, 100 mM NaCl, 5 mM DTT, 2 mM MgCl2. Runs were performed at 15°C and a flow rate of 0.2 mL / min. The eluted fractions were analyzed by SDS-PAGE. TFP-NES/CRM1^HA complex formation was also tested by Ni-NTA chromatography (see Supporting Information).
Fig 3 Native-like properties of CRM1^HA “high affinity” mutant and formation of complexes between this CRM1 variant and AML-related NPM mutants. (A) Circular dichroism thermal denaturation profiles of wild type CRM1 and CRM1^HA, followed by ellipticity at 222 nm as a function of temperature. […] When evaluating the relative amounts of the complex and free NPM, one should take into account that absorbance at 280 nm is lower for the mutants (especially NPMmutA) than for wild type NPM, since wild type NPM contains two Trp residues per subunit, NPMmutE one, and NPMmutA none. […] They are detected in the fractions containing the complex probably due to formation of mixed oligomers with the full length species and/or incomplete resolution from free NPM. […]

Kd (CRM1^HA [1]; TFP-NES 50 nM, pH 7.4, rounded, read-out: apparent KD): 5 µM
Kd (CRM1^HA [1]; TFP/YFP-NES construct 50 nM, 20 mM Tris/HCl pH 7.4, 50 mM NaCl, 5 mM DTT, 2 mM MgCl2, at least three measurements per CRM1 concentration, read-out: apparent KD (C50)): 4.97 ± 1.18 µM
CRM1^HA binding in Ni-NTA chromatography (CRM1^HA [2]): not even detected in these conditions
Kd (CRM1^HA [3]; NES ligand (35–180 μM) titrated onto CRM1^HA (2–14 μM), 20 mM HEPES pH 7.4, 50 mM NaCl, 1 mM TCEP, 1 mM MgCl2, independent binding sites model): 2.38 ± 0.698 µM
ΔH (CRM1^HA [3]; NES ligand titrated onto CRM1^HA, 20 mM HEPES pH 7.4): -14.5 ± 6.2 kcal/mol
-TΔS (CRM1^HA [3]; NES ligand titrated onto CRM1^HA, 20 mM HEPES pH 7.4, from ΔG = ΔH − TΔS): 6.9 ± 6.1 kcal/mol
n (binding stoichiometry) (CRM1^HA [3]; NES ligand titrated onto CRM1^HA, 20 mM HEPES pH 7.4, low n of peptides might result from limited solubility): 0.54 ± 0.27
ΔG (CRM1^HA [3]; NES ligand titrated onto CRM1^HA, 20 mM HEPES pH 7.4, ΔG = -RTlnKA): -7.6 ± 0.1 kcal/mol
Kd (CRM1^HA [3]; TFP-NES titrated onto CRM1^HA, 20 mM HEPES pH 7.4, rounded): 2.4 µM
Substance: DLCLAVEEVSLRK [TFP-mutA(NES), NES of NPM mutant A as C-terminal fusion to teal fluorescent protein]

Substance: VEAKFINYVKNCFRMTDQE [NPM cNES, candidate NES in C-terminal domain of NPM, tested as Rev(1.4)-GFP fusion]
nuclear export activity (HeLa cells): not functional as a nuclear export signal
nuclear export activity (HeLa cells; listed as 268-FINYVKNCFRM-278): inactive

complex formation with CRM1^HA (CRM1^HA [4]; SEC, 40 μM NPM + 140 μM CRM1^HA (data not shown)): failed to produce any detectable complex
Substance: wild type NPM: nucleophosmin, pentameric nucleolar protein
complex formation with CRM1^HA (CRM1^HA [4]; SEC Superdex 200, 20 μM (pentamer) NPM + 40 μM CRM1^HA, 30 min room temperature, run at 15°C, 20 mM Tris/HCl pH 7.4, 100 mM NaCl, mutant preparations partly C-terminally degraded): did not result in any complex stable enough as to be detected by SEC
